Test results as given in US20250312469A1 (CANGET BIOTEKPHARMA, priority 2024, published 2025).

What was measured:
P-gp = experiment: in vitro; conditions: human
human hepatocytes = experiment: Cell viability (MTS) after CYP induction treatment
Experimental: Vehicle controls were treated in parallel with hepatocyte culture medium. […] (2) After the CYP induction treatment, the cells were used for a cell viability assay. […] The absorbance of formazan, which is proportional to the number of viable cells, was measured spectrophotometrically using the CellTiter 96 AQueous ONE Solution Cell Proliferation Assay. […] (3) Total RNA was isolated from the treated cells using the RNeasy mini kit (Qiagen, Valencia, CA, USA) and treated with RNase-free DNase (Qiagen) following the manufacturer's protocols. The concentration of RNA was determined using a Qubit Fluorometer with a Qubit RNA HS assay kit (Invitrogen). cDNA was synthesized from up to 1 μg of the total RNA harvested from the cells using a QuantiTect RT kit (Qiagen). Analysis of gene expression by qPCR was performed using the LightCycler 480 System (Roche Diagnostics Corporation, Indianapolis, IN, USA).

[1] = tested on: LAPC9-AI vs. LAPC9-AD cells; experiment: LAPC9 organoid assay; assay type: cell-based
[2] = PK after single oral dose in tumor bearing mice
in vivo = conditions: female, SCID, mouse; for Tmax / half-life: po
ABCG2/BCRP = biological target: T1, ABCG2/BCRP (Homo sapiens, UniProt Q9UNQ0); experiment: ABCG2/BCRP inhibition (BCRP-MDCK, cladribine)
T1 sequence (Q9UNQ0 1-655): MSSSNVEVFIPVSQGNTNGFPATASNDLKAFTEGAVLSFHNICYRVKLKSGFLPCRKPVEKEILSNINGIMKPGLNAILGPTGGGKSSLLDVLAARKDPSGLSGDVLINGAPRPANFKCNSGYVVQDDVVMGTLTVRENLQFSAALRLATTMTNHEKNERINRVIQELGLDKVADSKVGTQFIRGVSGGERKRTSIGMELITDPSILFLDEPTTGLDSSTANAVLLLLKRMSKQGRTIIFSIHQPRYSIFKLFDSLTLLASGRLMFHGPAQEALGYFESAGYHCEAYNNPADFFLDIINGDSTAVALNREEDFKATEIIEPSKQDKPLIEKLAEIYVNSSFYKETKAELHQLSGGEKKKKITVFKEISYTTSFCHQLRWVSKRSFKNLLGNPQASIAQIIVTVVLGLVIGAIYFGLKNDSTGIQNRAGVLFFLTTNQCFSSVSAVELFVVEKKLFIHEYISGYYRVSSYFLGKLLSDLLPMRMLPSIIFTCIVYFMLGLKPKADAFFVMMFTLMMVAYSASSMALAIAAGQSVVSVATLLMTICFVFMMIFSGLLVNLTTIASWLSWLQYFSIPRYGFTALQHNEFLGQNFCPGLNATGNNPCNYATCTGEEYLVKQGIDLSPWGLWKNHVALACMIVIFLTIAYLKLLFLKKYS
Experimental: After 30 minutes the buffer was removed, replaced with fresh dosing solution/assay buffer, and time was recorded as 0. […] Each determination was performed in duplicate. […] Analytical conditions are outlined in Appendix 1.

[3] = HT29 tumor, single oral dose […]
[4] = SW620 tumor, single oral dose […]
[5] = mouse plasma, single oral dose […]

## CCC1(O)C(=O)OCc2c1cc1n(c2=O)Cc2cc3cc4c(cc3nc2-1)OCO4 (stereo not drawn) [FL118]
P-gp; Caco-2, pH 7.4, Papp AVG, Caco-2, A-to-B, without valspodar
  Papp A→B at 120 min, 1 μM: 6.97 ×10⁻⁶ cm/s
P-gp; Caco-2, pH 7.4, Papp AVG, Caco-2, B-to-A, without valspodar
  Papp B→A at 120 min, 1 μM: 8.1 ×10⁻⁶ cm/s
P-gp; Caco-2, pH 7.4, Papp R1, Caco-2, A-to-B, without valspodar
  Papp A→B at 120 min, 1 μM: 7.27 ×10⁻⁶ cm/s
P-gp; Caco-2, pH 7.4, Papp R1, Caco-2, B-to-A, without valspodar
  Papp B→A at 120 min, 1 μM: 7.35 ×10⁻⁶ cm/s
P-gp; Caco-2, pH 7.4, Papp R2, Caco-2, A-to-B, without valspodar
  Papp A→B at 120 min, 1 μM: 6.67 ×10⁻⁶ cm/s
P-gp; Caco-2, pH 7.4, Papp R2, Caco-2, B-to-A, without valspodar
  Papp B→A at 120 min, 1 μM: 8.86 ×10⁻⁶ cm/s
P-gp; Caco-2, pH 7.4, Recovery (%), Caco-2, A-to-B, without valspodar
  recovery at 120 min, 1 µM: 43%
P-gp; Caco-2, pH 7.4, Recovery (%), Caco-2, B-to-A, without valspodar
  recovery at 120 min, 1 µM: 48%
P-gp; Caco-2, pH 7.4, with valspodar 1 µM, Recovery (%), Caco-2, A-to-B, + 1 μM Valspodar
  recovery at 120 min, 1 µM: 46%
P-gp; Caco-2, pH 7.4, with valspodar 1 µM, Recovery (%), Caco-2, B-to-A, + 1 μM Valspodar
  recovery at 120 min, 1 µM: 48%
Human hepatocytes; donor 1, 0.01 μM
  % of Vehicle-treated Cells: 91%
  Formazan Absorbance Mean: 1.48
Human hepatocytes; donor 1, 0.1 μM
  % of Vehicle-treated Cells: 73%
  Formazan Absorbance Mean: 1.20
Human hepatocytes; donor 1, 1 μM
  % of Vehicle-treated Cells: 31%
  Formazan Absorbance Mean: 0.512
Human hepatocytes; donor 1, 0.1 and 1 μM
  cytotoxicity: dose-dependent cytotoxicity
Human hepatocytes; donor 2, 0.001 μM
  % of Vehicle-treated Cells: 103%
  Formazan Absorbance Mean: 1.53
Human hepatocytes; donor 2, 0.005 μM
  % of Vehicle-treated Cells: 101%
  Formazan Absorbance Mean: 1.51
Human hepatocytes; donor 2, 0.01 μM
  % of Vehicle-treated Cells: 99%
  Formazan Absorbance Mean: 1.48
Human hepatocytes; donor 2, 0.001 to 0.01 μM
  cytotoxicity: No cytotoxicity
Human hepatocytes; donor 3, 0.025 μM
  % of Vehicle-treated Cells: 94%
  Formazan Absorbance Mean: 1.63
Human hepatocytes; donor 3, 0.05 μM
  % of Vehicle-treated Cells: 104%
  Formazan Absorbance Mean: 1.80
Human hepatocytes; donor 3, 0.025 and 0.05 μM
  cytotoxicity: did not show cytotoxicity
[1]
  toxicity to AR−/lo LAPC9-AI vs AR+ LAPC9-AD cells: selective toxicity
[2]; [3]
  Cl: 8,440 g/hr/kg
  Tmax: 1.00 h
  VD: 51,700 g/kg
  t1/2: 4.24 h
[2]; HT29 tumor, p.o. […]
  Cl: 8,440 g/hr/kg
  VD: 51,700 g/kg
[2]; [4]
  Cl: 6,710 g/hr/kg
  Tmax: 1.00 h
  VD: 28,900 g/kg
  t1/2: 2.99 h
[2]; SW620 tumor, p.o. […]
  Cl: 6,710 g/hr/kg
  VD: 28,900 g/kg
[2]; from the PK studies
  concentration that can be reached in cancer cells: ≤ 25 nM
[2]; [5]
  Cl: 17,000 mL/hr/kg
  Tmax: 0.500 h
  VD: 126,000 mL/kg
  t1/2: 5.12 h
[2]; plasma, 1.0 h, single oral dose […]
  FL118 concentration, individual mice: 19.1 ng/mL
[2]; plasma, 4.0 h, single oral dose […]
  FL118 concentration, individual mice: 4.78 ng/mL
[2]; plasma, p.o. […]
  Cl: 17,000 mL/hr/kg
  VD: 126,000 mL/kg
In vivo; HT29 tumor
  Tmax: 1 h
  half-life: 4.24 h
In vivo; SW620 tumor
  Tmax: 1 h
  half-life: 2.99 h
In vivo; plasma, oral
  bioavailability: 84.6%
In vivo; plasma
  Tmax: 0.5 h
  half-life: 5.12 h
ABCG2/BCRP; 1.0 μM FL118
  inhibition of BCRP transport of cladribine: does not inhibit cladribine acting as a BCRP substrate
ABCG2/BCRP; BCRP-MDCK, cladribine as substrate, 1.0 μM FL118 or 0.5 μM Ko143
  BCRP Inhibition Potential Classification: Negative (without inhibitor, and reduced by <50 with inhibitor: Negative)
